Test results reported in patent US7307071B2, “RAF-MEK-ERK pathway inhibitors to treat cancer” (Onyx Pharmaceuticals, Inc, priority 2001, dated 2007).

Assays:
[1] = test system: chronic myelogenous leukemia; conditions: CML patients, remissions achieved during blast phase; cited from earlier work
[2] = test system: phospho-ERK in Ba/F3 cells expressing Bcr-Abl imatinib resistant mutants E255K and T315I; assay: ERK phosphorylation, Western blot with phospho-ERK antibody; type: cell-based, mouse; conditions: FIG. 5
Experimental: (§1) The experiment was conducted as follows. On day 1, 2×10^6 cells were plated in a 6 well plate in medium containing 10% serum, and on day 2 the cells were treated with the relevant compound dissolved in DMSO. The final DMSO concentration was 0.2%. Next, the cells were spun down, and washed once with 2 ml of ice-cold phosphate buffered saline, and then lysed with […] buffer. Next, 50 ul of cell lysates was electrophoresed in 10% Tris-Glycine gels, followed by treatment with a 1° antibody which was a phospho-ERK polyclonal rabbit antibody used at 1:1000 dilution. It was obtained from Cell Signaling. The 1° was followed by a 2° antibody which was goat anti-rabbit horse radish peroxidase antibody, and it was used at a dilution of 1:1000. Lastly, Westerns were developed with an ECL kit obtained from Amersham.

[3] = test system: phospho-ERK in Ba/F3 cells expressing wild type Bcr-Abl; assay: as above; type: cell-based, mouse; conditions: FIG. 5
Experimental: as §1

[4] = test system: all four cell lines: Ba/F3, P210 WT, P210 T315I, P210 E255K; assay: Cell proliferation (cell viability) by trypan blue dye exclusion; type: cell-based, mouse; conditions: FIG. 4, 3 experiments, read-out: IC50 for inhibition of cell proliferation
Experimental: Briefly, cell culture methods were as follows. […] Cell proliferation assays were performed as follows.

| IC50 [4] | Structure (SMILES) | time to relapse after remission [1] | effect on phospho-ERK levels [2] | effect on phospho-ERK levels [3] |
| --- | --- | --- | --- | --- |
| – | Cc1ccc(NC(=O)c2ccc(CN3CCN(C)CC3)cc2)cc1Nc1nccc(-c2cccnc2)n1 [imatinib] | 2-6 months | – | – |
| 4 to 8 µM | CNC(=O)c1cc(Oc2ccc(NC(=O)Nc3ccc(Cl)c(C(F)(F)F)c3)cc2)ccn1 [BAY 43-9006] | – | decrease in phospho-ERK levels | decrease in phospho-ERK levels |
